Legend:
[1] = system: human monocyte-derived dendritic cells; test: FACS: binding of misfolded proteins and BiP to human monocyte-derived dendritic cells; type: cell-based
Source text: In vitro generation of peripheral blood human monocyte-derived dendritic cells, and analyses for binding of misfolded proteins and BiP
Human DCs are generated from non-proliferating precursors selected from peripheral blood mononuclear cells (PBMCs), essentially by published methods (Sallustro and Lanzavecchia [1994], J. Exp. Med. 179 1109-1118). Relative abundant presence of CD1a, CD32, CD36, CD40, CD54, CD86, HLA-DR and CD206 and relative low content of CD14 positive, CD16 positive, CD64 positive, CD80 positive, CD83 positive and CD163 positive cells serve as a quality measure for the immature DCs. After obtaining the immature DCs upon stimulation with GM-CSF and IL-4, direct binding of misfolded proteins and BiP to the DCs is assessed by incubating 200.000 cells (2*10^6 cells/ml) for 30 minutes at 4° C. under metabolic arrested state, with 1) PBS, 2) 58 μg/ml BiP (830 nM), 4) 250 μg/ml BSA-AGE (3.6 μM), 5) BSA-AGE+BiP, 6) 250 μg/ml oxLDL, 7) oxLDL+BiP, 8) mixture of BiP-binding peptides 6BB8-11, 13 (see Table 5), 125 μg/ml+BiP, and 8) 62.5 μg/ml Aβ16-22, 62.5 μg/ml Aβ25-35+BiP. After the incubation and careful washing of the cells, binding of BiP, BSA-AGE and oxLDL is assessed with FACS, using primary antibodies monoclonal anti-FLAG antibody, monoclonal anti-glycated human fibronectin antibody 4B5 and rabbit serum with anti-human apoliprotein B-100 antibody (Dade Behring, Newark, Del., USA), and the appropriate FITC- or PE-labeled secondary antibody. Mean fluorescence intensity (MFI) ratio's are determined by measuring background fluorescence.

immobilized BiP = target: T1, immobilized BiP (Homo sapiens, UniProt P11021); test: Depletion of solutions from misfolded proteins using immobilized BiP (ELISA); type: binding; conditions: BiP coated at 5 μg/ml
T1 construct: The human BiP gene except the signal peptide encoding region was obtained from Geneart (Germany); linker […]; made in house; host or cells: HEK 293E cells, transient transfection, PABC674 vector; secreted into the medium
Description: We analysed whether recombinant human BiP with a C-terminal FLAG-tag and His-tag can be applied for depleting solutions from misfolded proteins comprising crossbeta structure.
BiP was coated at a concentration of 5 μg/ml at Greiner Microlon high-binding plates, for 1 h at room temperature with motion. As a negative control buffer was coated. ELISAs were performed essentially as described before. […] All binding buffers were PBS/0.1% (v/v) Tween20. Binding of dOVA was assayed using monoclonal anti-chicken egg albumin antibody (Sigma, A6075, 1:10.000 dilution) and RAMPO (Dako Cytomation, P0260, 1:3.000). […] Background signals obtained with buffer coated wells that were subsequently overlayed with protein solutions (see below), were subtracted from signals obtained with wells with coated BiP.

T1 sequence (P11021 19-654): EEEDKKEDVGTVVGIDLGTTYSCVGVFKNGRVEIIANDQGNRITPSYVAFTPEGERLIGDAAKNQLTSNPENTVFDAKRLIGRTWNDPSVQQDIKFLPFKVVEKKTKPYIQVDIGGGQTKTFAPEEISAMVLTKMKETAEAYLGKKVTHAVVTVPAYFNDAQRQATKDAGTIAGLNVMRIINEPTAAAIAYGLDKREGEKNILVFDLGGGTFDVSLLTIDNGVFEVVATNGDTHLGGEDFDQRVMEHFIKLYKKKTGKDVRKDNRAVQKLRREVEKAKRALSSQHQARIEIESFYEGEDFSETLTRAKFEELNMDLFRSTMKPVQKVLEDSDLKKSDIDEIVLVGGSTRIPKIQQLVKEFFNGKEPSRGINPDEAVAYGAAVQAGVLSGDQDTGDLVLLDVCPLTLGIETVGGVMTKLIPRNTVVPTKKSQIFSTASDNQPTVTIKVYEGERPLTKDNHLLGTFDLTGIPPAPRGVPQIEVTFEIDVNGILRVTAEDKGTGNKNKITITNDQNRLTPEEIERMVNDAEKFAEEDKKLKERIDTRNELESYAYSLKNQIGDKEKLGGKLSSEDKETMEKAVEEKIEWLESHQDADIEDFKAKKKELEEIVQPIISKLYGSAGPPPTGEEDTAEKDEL

Substance	Binding to DCs (MFI ratio), Misfolded protein ([1]; FACS, human dendritic cells, detection of the misfolded protein, signal divided by background signal)	Binding of misfolded protein to DCs ([1]; absence of BiP, 250 μg/ml)	Amount of BiP bound to DCs when added together with misfolded protein ([1]; compared to BiP added to DCs alone)	Amount of misfolded protein bound to DCs when added together with BiP ([1]; compared to misfolded protein without BiP)	Concentration at which binding to immobilized BiP is already maximum (immobilized BiP) [µg/mL]	Extraction from solution by immobilized BiP (immobilized BiP; 1, 10, 100 μg/ml misfolded protein)
BSA-AGE	4.0	bind	about doubled	only slightly increased		
HbAGE: human haemoglobin glycated with glucose-6-phosphate for 75 weeks					1	extracted specifically by BiP to an even higher extent

Reference: patent US20100015126A1, “Methods of Binding of Cross-Beta Structures By Chaperones” (priority 2006, published 2010)
